How the values were obtained:
[1] = system: MDA-MB-361 human breast cancer xenografts; test: Antitumor activity, multiple dosing schedules, MDA-MB-361 xenografts (Example 41); type: in vivo, Mus musculus; conditions: Day 28
Experimental: Compound A was prepared in 100% PEG400 every 5-7 days and stored at approximately 25° C., shielded from light. The control article used in this study was 100% PEG400.
Low passage MDA-MB-361 cells were grown in Dulbecco's Modified Eagle's Medium (DMEM) media supplemented with 20% fetal bovine serum (FBS) and 1× penicillin/streptomycin (Invitrogen) until approximately 80% confluency was reached. Prior to injection, the cells were detached with Trypsin (Invitrogen), washed twice with phosphate buffered saline (PBS), and resuspended in RPMI (Roswell Park Memorial Institute) media (Invitrogen) without supplements. Cells were resuspended to a final concentration of 10.0×10^7 cells/mL in DMEM media without supplements, with 50% Matrigel (BD Biosciences). MDA-MB-361 cells (10.0×10^6 cells per animal in 0.1-mL injection volume) were implanted SC into the flank of female athymic nude mice. The animals used in this study are described in the following table.
4-5 week old female athymic nude mice were inoculated SC in flank (cell suspension in serum free DMEM and 50% Matrigel) with 10.0×10^6 MDA-MB-361 cells. Tumor growth was monitored with vernier calipers. The mean TV (MTV) was calculated using the formula V=W^2×L/2. When the MTV reached approximately 280 mm^3, the animals were randomized into 14 treatment groups (n=5/group). […] Tumor growth and body weight were measured twice per week. Percent TGI and body weight change were calculated on Day 28. Treatment started on Day 0 for 28 days. Antitumor activity was determined on day 28 of treatment by calculating the percent TGI using
Percent TGI=(mean tumor volume [MTV] of the control group−MTV of a treated group)/MTV of the control group×100. Equation 1
The differences in the tumor growth trends over time between pairs of treatment groups were assessed using linear mixed effects regression models. These models account for the fact that each animal was measured at multiple time points. A separate model was fit for each comparison, and the area under the curve (AUC) values for each treatment group were calculated using the predicted values from the model. The percent decrease in AUC (ΔAUC) relative to the reference group was then calculated.
Drug combinations were assessed for synergy using observed AUC values. The change in AUC relative to the control was calculated for both single agent treatment groups as well as the combination group. The interaction between the two compounds was then assessed by comparing the change in AUC observed in the combination group to the sum of the changes observed in both single agents. The results can be divided into four categories: synergistic, additive, sub-additive, and antagonistic. Further details regarding combination analyses are provided in the appendix. All p values less than 0.05 were considered significant.

[2] = system: PI3 kinase signaling pathway in MDA-MB-361, HCC-1419, NCI-H1048; test: Cellular signaling immunoblot in human tumor cell lines; type: cell-based; conditions: Compound B 5-100 nM, Compound A 1 and 3 μM, 2 or 24 hours, Western blot, FIG. 15
Experimental: Compound A was synthesized at Intellikine and was supplied as a stock of 10 mM in 100% DMSO and diluted in the respective cell line's growth media.
Prior to treatment, cells were plated at 2×10^5 cells/well in 12-well plates in normal growth media and grown to 80% confluence.
Media was aspirated, cells were washed with 1×PBS, Ice cold 1× Cell Lysis Buffer was prepared from 10× stock and 100 μM 4-(2-Aminoethyl)benzenesulfonyl fluoride hydrochloride (AEBSF) and 1 mM sodium orthovanadate […] was added. Cells were lysed by adding 1× Cell Lysis Buffer (100 μL per well of 12-well plate of cells). Cells incubated on ice for 20 to 30 minutes to allow complete lysis, and lysates were transferred to microcentrifuge tubes, sonicated for 10 seconds, and subjected to microcentrifugation at 14,000×g for 10 minutes at 4° C. Cleared supernatants were transferred to fresh tubes, and stored at −20° C. for Western blot analysis. […] Molecular weight markers were loaded, the gel electrophoresed at 200V for 40 minutes.
The gels were electrotransferred to nitrocellulose membranes, and incubated in blocking buffer (Tris buffered saline plus 0.5% Tween-20 (TBS/T)+5% bovine serum albumin (BSA)) for 1 hour at room temperature. […]

Structure (SMILES) | TGI ([1]; 60 mg/kg QD PO) [%] | TGI ([1]; 70 mg/kg QD 3on/4off PO) [%] | TGI ([1]; 140 mg/kg QD 3on/4off PO) [%] | TGI ([1]; 210 mg/kg QW PO) [%] | inhibition of phosphorylation of downstream targets AKT, S6, 4E-BP1 [2] | TGI ([1]; 0.3 mg/kg QD PO) [%] | TGI ([1]; 1.0 mg/kg QD 3on/4off PO) [%] | TGI ([1]; 3.0 mg/kg QW PO) [%]
Nc1nc2cc(-c3ccc4ncc(C(=O)N5CCOCC5)n4c3)ccc2o1 [Compound A] | 84.5 | 76.0 | 84.2 | 64.7 | potently inhibited |  |  | 
CC(C)n1nc(-c2ccc3oc(N)nc3c2)c2c(N)ncnc21 [Compound B] |  |  |  |  | potently inhibited | 71.1 | 63.6 | 52.7
